Patent US10221177B2 (HYDRA BIOSCIENCES, INC., priority 2014, dated 2019)

Experiments:
[1] = test system: CFA-induced cold hypersensitivity of the hind paw; assay: CFA-induced pain test, cold hypersensitivity (cold plate paw withdrawal latency); assay type: in vivo; conditions: cold plate 1° C.; for Average PWL Post-Treatment / PWL Change: 1-2 hour pre-treatment; for Average PWL Post-CFA: baseline before dosing
Experimental: Embodiments of the invention may be efficacious in the treatment of inflammatory pain. Compounds of the invention were tested by the CFA-induced pain test method. Compounds were formulated as solutions in water with various solvents and excipients including dimethyl sulfoxide (DMSO), polyethylene glycol (15)-hydroxystearate (Solutol®, Sigma-Aldrich), caprylocaproyl macrogol-8 glyceride (Labrasol®, Sigma-Aldrich), polysorbate-80 (Tween®-80, Sigma-Aldrich), and polyoxyl 35 castor oil (Cremophor® EL, BASF Corp.); or suspensions in methylcellulose as indicated in Table 3 for oral delivery. Briefly, the hind paw was sensitized to cold temperature (allodynic) by administering 0.1 mL of Complete Freund's Adjuvant (CFA) to the right hind paw. Three days later, the time taken for the animal to lift its CFA-injected paw was recorded compared to its un-injected normal left hind paw. […] To avoid tissue damage the maximum cut-off time was 5 minutes. Animals that were allodynic (average PWL to the first three pain behaviors <150 seconds for the CFA-injected hind paw: ˜≥50% difference between the normal and CFA-injected paw) were included in the study and subsequently randomized across treatment groups. The following day, the animals were dosed orally under blinded conditions. Following the 1-2 hour pre-treatment time, the post-dose PWL readings were again taken. The efficacy of the drug treatment was assessed by comparing the PWL in the drug treatment animals to those animals that receive the vehicle. P values, when indicated, indicate significance compared Vehicle.

[2] = biological target: human TRPA1 (Homo sapiens (Human), UniProt O75762); assay: In vitro inhibition of human TRPA1, whole cell patch configuration; assay type: cell-based; conditions: current activation 10 μM AITC, tested concentrations 320 pM to 3.2 μM, read-out: hTRPA1 IC50
Method in brief: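 Compound antagonism measured from voltage ramps (±100 or ±80 mV, 400 ms, every 4 s from −40 mV), analysed at −80 and 80 mV, or at constant −60 mV. HEPES-buffered NaCl bath, pH 7.4, EGTA or 2 mM Ca2+; temperature set by perfusion, within ±2° C; no junction-potential correction.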

[3] = test system: formalin-induced pain behaviors in the rat; assay: Formalin-induced pain test (formalin model), duration of pain behaviors; assay type: in vivo
Method in brief: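 Rats dosed orally with vehicle or compound (solutions with DMSO, Solutol, Labrasol, Tween-80, Cremophor EL, or methylcellulose suspensions) one hour before intraplantar injection of 50 μL 3% formalin into hind paw. Duration of pain behaviors counted by blinded observer; Phase I covers 0-5 min; comparison to vehicle.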

[4] = 0.3 mg/kg PO, solution in 4% DMSO, 5% Tween-80, 20% Cremophor EL, and 71% water
[5] = 1 mg/kg PO, solution in 4% DMSO, 5% Tween-80, 20% Cremophor EL, and 71% water
[6] = 3 mg/kg PO, solution in 4% DMSO, 5% Tween-80, 20% Cremophor EL, and 71% water
[7] = group 0.3 mg/kg PO, solution in 4% DMSO, 5% Tween-80, 20% Cremophor EL, and 71% water
[8] = group 1 mg/kg PO, solution in 4% DMSO, 5% Tween-80, 20% Cremophor EL, and 71% water
[9] = group 3 mg/kg PO, solution in 4% DMSO, 5% Tween-80, 20% Cremophor EL, and 71% water
[10] = 1 mg/kg PO one hour prior to formalin, solution in 4% DMSO, 5% Tween-80, 20% Cremophor EL, 71% water
[11] = 3 mg/kg PO one hour prior to formalin, solution in 4% DMSO, 5% Tween-80, 20% Cremophor EL, 71% water
[12] = 10 mg/kg PO one hour prior to formalin, solution in 4% DMSO, 5% Tween-80, 20% Cremophor EL, 71% water
[13] = 1 mg/kg PO, suspension in 0.5% methylcellulose
[14] = 3 mg/kg PO, suspension in 0.5% methylcellulose
[15] = 10 mg/kg PO, suspension in 0.5% methylcellulose
[16] = 1 mg/kg PO one hour prior to formalin, suspension in 0.5% methylcellulose
[17] = 3 mg/kg PO one hour prior to formalin, suspension in 0.5% methylcellulose
[18] = 10 mg/kg PO one hour prior to formalin, suspension in 0.5% methylcellulose

Sequence of human TRPA1 (O75762 whole entry, the tested form may be a part): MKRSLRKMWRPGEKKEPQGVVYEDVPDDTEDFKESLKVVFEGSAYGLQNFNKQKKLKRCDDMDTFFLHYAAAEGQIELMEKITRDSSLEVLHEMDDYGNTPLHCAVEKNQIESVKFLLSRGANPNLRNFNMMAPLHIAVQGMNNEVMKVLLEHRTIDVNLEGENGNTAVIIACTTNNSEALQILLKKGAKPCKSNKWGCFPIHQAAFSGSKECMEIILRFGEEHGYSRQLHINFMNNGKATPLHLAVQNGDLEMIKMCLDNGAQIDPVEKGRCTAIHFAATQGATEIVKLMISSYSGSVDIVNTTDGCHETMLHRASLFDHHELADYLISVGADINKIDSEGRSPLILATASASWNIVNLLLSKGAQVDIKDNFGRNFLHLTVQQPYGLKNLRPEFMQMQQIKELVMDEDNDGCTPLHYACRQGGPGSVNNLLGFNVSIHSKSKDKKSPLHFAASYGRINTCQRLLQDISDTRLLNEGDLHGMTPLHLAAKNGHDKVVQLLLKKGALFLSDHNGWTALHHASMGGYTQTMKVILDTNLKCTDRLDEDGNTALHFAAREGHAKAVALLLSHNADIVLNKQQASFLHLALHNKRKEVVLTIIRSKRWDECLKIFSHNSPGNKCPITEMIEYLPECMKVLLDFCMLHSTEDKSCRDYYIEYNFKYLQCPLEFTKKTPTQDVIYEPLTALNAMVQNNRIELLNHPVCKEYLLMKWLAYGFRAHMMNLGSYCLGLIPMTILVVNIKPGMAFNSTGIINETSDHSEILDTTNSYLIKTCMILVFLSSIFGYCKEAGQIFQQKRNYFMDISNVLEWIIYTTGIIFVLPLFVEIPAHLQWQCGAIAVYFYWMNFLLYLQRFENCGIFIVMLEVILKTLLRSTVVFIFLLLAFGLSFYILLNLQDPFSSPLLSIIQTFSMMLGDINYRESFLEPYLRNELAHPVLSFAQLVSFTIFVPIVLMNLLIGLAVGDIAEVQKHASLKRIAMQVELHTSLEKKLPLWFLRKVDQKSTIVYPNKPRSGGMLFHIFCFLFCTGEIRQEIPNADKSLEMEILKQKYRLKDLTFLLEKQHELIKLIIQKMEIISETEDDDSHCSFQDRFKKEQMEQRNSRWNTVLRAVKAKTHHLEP

| Compound | Average PWL Post-Treatment [1, 4] | PWL Change [1, 4] | Average PWL Post-Treatment [1, 5] | PWL Change [1, 5] | Average PWL Post-Treatment [1, 6] | PWL Change [1, 6] | Average PWL Post-CFA [1, 7] | Average PWL Post-CFA [1, 8] | Average PWL Post-CFA [1, 9] | IC50 [2] | Duration (0-2 Minutes) Average [3, 10] | Duration (0-5 Minutes) Average [3, 10] | Duration (0-2 Minutes) Average [3, 11] | Duration (0-5 Minutes) Average [3, 11] | Duration (0-2 Minutes) Average [3, 12] | Duration (0-5 Minutes) Average [3, 12] | other results |
| --- | --- | --- | --- | --- | --- | --- | --- | --- | --- | --- | --- | --- | --- | --- | --- | --- | --- |
| CC(=O)Cn1c(=O)c2c(ncn2[C@@H](C)C(=O)Nc2cncc(-c3cnc(N4CC5C(C4)C5(F)F)nc3)n2)n(C)c1=O (stereo partly drawn) [Compound 74, (2S)—N-(6-(2-(6,6-difluoro-3-azabicyclo[3.1.0]hexan-3-yl)pyrimidin-5-yl)pyrazin-2-yl)-2-(3-methyl-2,6-dioxo-1-(2-oxopropyl)-2,3-dihydro-1H-purin-7(6H)-yl)propanamide] | 160.9 | 69.9 s | 271.3 | 181.0 s | 273.2 | 182.3 s | 91.1 | 90.4 | 90.9 | 6 nM | 94.8 s | 169.0 s | 78.3 s | 172.9 s | 62.3 s | 152.6 s |  |
| CC(=O)Cn1c(=O)c2c(ncn2[C@@H](C)C(=O)Nc2csc(-c3ccc(N4CC5C(C4)C5(F)F)nc3)n2)n(C)c1=O (stereo partly drawn) [Compound 79, (2S)—N-(2-(6-(6,6-difluoro-3-azabicyclo[3.1.0]hexan-3-yl)pyridin-3-yl)thiazol-4-yl)-2-(3-methyl-2,6-dioxo-1-(2-oxopropyl)-2,3-dihydro-1H-purin-7(6H)-yl)propanamide] |  |  |  |  |  |  |  |  |  | 3 nM |  |  |  |  |  |  | Average PWL Post-Treatment [1, 13]: 140.2; PWL Change [1, 13]: 38.0 s; Average PWL Post-Treatment [1, 14]: 201.8; PWL Change [1, 14]: 99.6 s; Average PWL Post-Treatment [1, 15]: 231.5; PWL Change [1, 15]: 129.3 s; Average PWL Post-CFA ([1]; group 1 mg/kg PO, suspension in 0.5% methylcellulose): 102.2; Average PWL Post-CFA ([1]; group 3 mg/kg PO, suspension in 0.5% methylcellulose): 102.2; Average PWL Post-CFA ([1]; group 10 mg/kg PO, suspension in 0.5% methylcellulose): 102.3; Duration (0-2 Minutes) Average [3, 16]: 86.1 s; Duration (0-5 Minutes) Average [3, 16]: 169.8 s; Duration (0-2 Minutes) Average [3, 17]: 86.5 s; Duration (0-5 Minutes) Average [3, 17]: 151.1 s; Duration (0-2 Minutes) Average [3, 18]: 77.3 s; Duration (0-5 Minutes) Average [3, 18]: 142.5 s |
| CC(=O)Cn1c(=O)c2c(ncn2[C@@H](C)C(=O)Nc2cccc(-c3cnc(C)c(C(F)(F)F)c3)n2)n(C)c1=O [Compound 97, (S)-2-(3-methyl-2,6-dioxo-1-(2-oxopropyl)-2,3-dihydro-1H-purin-7(6H)-yl)-N-(6′-methyl-5′-(trifluoromethyl)-[2,3′-bipyridin]-6-yl)propanamide] | 194.7 | 77.3 s | 262.7 | 149.8 s | 260.8 | 157.3 s | 117.3 | 112.9 | 103.5 | 5 nM | 69.3 s | 162.4 s | 78.5 s | 175.3 s | 56.8 s | 185.4 s |  |
| Cc1noc(Cn2c(=O)c3c(ncn3[C@@H](C)C(=O)Nc3cccc(-c4cnc(C(F)(F)F)nc4)n3)n(C)c2=O)n1 [Compound 104, (S)-2-(3-methyl-1-((3-methyl-1,2,4-oxadiazol-5-yl)methyl)-2,6-dioxo-2,3-dihydro-1H-purin-7(6H)-yl)-N-(6-(2-(trifluoromethyl)pyrimidin-5-yl)pyridin-2-yl)propanamide] | 190.0 | 84.9 s | 295.1 | 190.9 s | 281.7 | 176.8 s | 105.1 | 104.2 | 104.9 | 15 nM | 98.5 s | 167.9 s | 70.9 s | 140.0 s | 56.6 s | 128.9 s |  |
